Laboratory results as given in US4293483A, “Derivatives of A-30912A nucleus” (priority 1980, dated 1981).
Values after ≈ are worked out from the molar mass of the structure shown. Values joined by “and” are separate entries in the source; they are usually repeats but may differ in a detail not shown here. Identical values can stand only once. Like-named read-outs stand apart in the source and are kept apart here. Numbered stars: 1 amine (or outer) side, 2 acyl side, 3 side chain; on linkers, the order of the positions; unused ones are H or OH. Bridge positions count the residues as written; N and C are the ends. Square brackets hold non-standard residues; d marks the D form. Peptide text beside a SMILES is read from it. * marks the point of attachment. Orn(4R-OH,5R-OH) = O=C([C@H](C[C@@H](O)[C@@H](O)N[*:3])N[*:1])[*:2]; hTyr(3S-OH,4S-OH) = N[C@H](C(=O)O)[C@H](O)[C@@H](O)c1ccc(O)cc1; Pro(3S-OH,4S-Me) = C[C@H]1CN[C@H](C(=O)O)[C@H]1O; X6 = O=C(C=Cc1ccc(N[*:1])cc1)[*:2]; Hyp = O=C(O)[C@@H]1C[C@@H](O)CN1; X2 = O=C(Cc1ccc(N[*:1])cc1)[*:2]; Lauroyl = CCCCCCCCCCCC(=O)*; 4Abz = Nc1ccc(C(=O)O)cc1; Aun = NCCCCCCCCCCC(=O)O; Ava = NCCCCC(=O)O

Key:
Candida albicans A-26 [1] = experiment: Therapeutic activity against Candida albicans A-26 infection in mice; type: in vivo; conditions: A26, sc
Experimental: The results of in vivo tests to evaluate the effectiveness of the compound of Examples 61-81, 86 and 88 against an infection caused by Candida albicans A-26 in mice are given in Table 7, where activity is measured by the ED50 value (the dose in mg/kg. required to cure 50% of the test animals). Where an ED50 value was not obtained, activity is indicated by the lowest dose at which a significant anti-fungal effect is observed. In this test, groups of male albino mice (specific pathogen free), weighing 18 to 20 grams, are infected intravenously with Candida albicans A-26. The animals are X-irradiated 24 hours prior to infection at about 50 roentgens per minute for 8 minutes (400 total dose) to reduce immune responses to the infecting organism. At 0, 4, and 24 hours post infection each group of mice is given graded doses subcutaneously of the test compound as a suspension in 33% polyethylene glycol-water. The day of death for each animal is recorded.
*Dosage Schedule: 40, 20, 15, and 10 mg/kg. Dosages given 0, 4, and 24
hours post injection as suspension of test compound in 30% PEGH2 O.
Number of mice receiving test compounds at each dosage level: 6 mice per
group. Number of mice in control (untreated) group: 10 mice per group.
**As measured by increase in survival time of treated animals versus
control, calculated by method of Reed V. Mueuch, American J. Hygiene, 493

Candida albicans A-26 [2] = experiment: Agar plate disc diffusion test, MIC per disc; type: cell-based; conditions: 0.01M sodium borate, pH 7.5, 24 hours at 30° C.
Experimental: (§3) *Compounds were suspended in 0.01M sodium borate solution, pH 7.5.
(§4) compounds were tested at 20 μg/disc at top level and at twofold
(§5) dilutions until end points were reached.

[3] = mouse, in vivo, 416 mg/kg, 240 min
Experimental: (§6) In this test, mice are gavaged with a dose of 416 mg/kg of the test compound suspended in 33% PEG 400-water. At time intervals, blood samples are taken from the orbital sinus and are assayed for antibiotic activity as follows: A 7 mm. disc containing 20 μl of whole blood is placed on agar seeded with Aspergillus montevidensis A35137. After 40 hours incubation at 30° C. zones of inhibition from the blood samples are compared to a standard obtained from the test compound, and the amount of compound in the blood sample is calculated.

in vivo = conditions: mouse, po, 416 mg/kg
Experimental: as §6

Neurospora Crassa 846 = experiment: Agar plate disc diffusion test, zone of inhibition; type: cell-based; conditions: 7 mm disc; for zone of inhibition at 1000 µg/mL: Neurospora crassa
Experimental: (§7) ^(a) Compounds were tested as suspension in methanol.
(§8) were tested at a concentration of 1 mg/ml by a dipping 7mm disc into the
(§9) suspension and placing it on the agar surface. Incubation: 24-48 hours at

Candida albicans A-26 [4] = experiment: Agar plate disc diffusion test, zone of inhibition; type: cell-based; conditions: 7 mm disc; for Size of Zone of Inhibition: 1 mg/ml suspension in methanol, 24-48 hours at 25-37° C., no regrowth mark
Experimental: as §7, §8, §9

[5] = test system: Trychophyton mentagrophytes #6; experiment: Agar plate disc diffusion test, MIC per disc; type: cell-based; conditions: 0.01M sodium borate, pH 7.5, 24 hours at 30° C.
Experimental: as §3, §4, §5

[6] = test system: Trichophyton mentagrophytes; experiment: Agar plate disc diffusion test, zone of inhibition; type: cell-based
Experimental: as §7, §8, §9

[7] = test system: Saccharomyces pastorianus X-52; experiment: Agar plate disc diffusion test, zone of inhibition; type: cell-based; conditions: 1 mg/ml suspension in methanol, 7 mm disc, 24-48 hours at 25-37° C.; for zone of inhibition at 1000 µg/mL: Saccharomyces pastorianus, X52, 48 h
Experimental: as §7, §8, §9

Candida albicans SBH 29 = experiment: Agar dilution assay; type: cell-based
Experimental: (§1) Tables 4 and 5 give the results of the testing in vitro of the compounds of Examples 61-81 by agar-plate disc-diffusion methods. In Table 4 activity is measured by the size (diameter in mm.) of the observed zone of inhibition of the microorganism produced by the test compound. In Table 5, activity is measured by the minimal inhibitory concentration (MIC) of the substance (μg/disc) required to inhibit growth of the test organism. Table 6 gives the results of the testing in vitro of the N-(n-dodecanoyl)-p-aminobenzoyl derivative of A30912A nucleus (Formula III, R^1 is N-(dodecanoyl)-p-aminobenzoyl) against five strains of Candida albicans by the agar dilution method. In Table 6 activity is measured by the minimal inhibitory concentration (MIC) of the substance (μg/ml) required to inhibit the test organism.
(§2) In vitro activity of the N-(n-dodecanoyl)-p-aminobenzoyl (Example 64) and the N-(n-dodecanoyl)-5-amino-n-pentanoyl (Example 62) derivatives of A-30912A nucleus against 5 strains of Candida albicans by the agar dilution assay.

Candida albicans SBH 31 = experiment: Agar dilution assay; type: cell-based
Experimental: as §1, §2

Candida albicans SBH 28 = experiment: Agar dilution assay; type: cell-based
Experimental: as §1, §2

Candida albicans SBH 16 = experiment: Agar dilution assay; type: cell-based
Experimental: as §1, §2

Candida albicans A26 = experiment: Agar dilution assay; type: cell-based
Experimental: as §1, §2

[8] = Blood levels after oral administration in mice; conditions: mouse, in vivo, po, 416 mg/kg
Experimental: as §6

[9] = Toxicity in dog on intravenous administration; type: in vivo; conditions: 100 mg/kg per day for five days
[10] = subcutaneous at 0, 4 and 24 hours post infection, dose to cure 50% of test animals, by increase in survival time, read-out: ED50
[11] = subcutaneous at 0, 4 and 24 hours post infection, lowest dose with significant anti-fungal effect, read-out: Lowest Active Dose
[12] = CRASSA846, Neurospora Crassa 846, 1 mg/ml, * measurable zone of inhibition with regrowth of organism around disc, read-out: Size of Zone of Inhibition (*)
[13] = 1 mg/ml, 7 mm disc, * measurable zone of inhibition with regrowth of organism around disc
[14] = 1 mg/ml, 7 mm disc, * measurable zone of inhibition with regrowth of organism around disc, read-out: Size of Zone of Inhibition (*)
[15] = Saccharomyces pastorianus X-52, read-out: Size of Zone of Inhibition

SMILES | ED50 (Candida albicans A-26 [1]; [10]) | minimal effective dose (Candida albicans A-26 [1]; [11]) | MIC (Candida albicans A-26 [2]) | Blood Levels [3] | concentration at 4 h (in vivo) | zone of inhibition at 1000 µg/mL (Neurospora Crassa 846; [12]) | Size of Zone of Inhibition (Candida albicans A-26 [4]) | MIC [5] | Size of Zone of Inhibition (*) [6, 13] | zone of inhibition at 1000 µg/mL [6, 14] | Size of Zone of Inhibition ([7]; Saccharomyces pastorianus X-52) | zone of inhibition at 1000 µg/mL [7, 15] | further results
CCCCCCCCCCCC(=O)NCCCCCCCCCCC(=O)N[C@H]1C[C@@H](O)[C@@H](O)NC(=O)[C@@H]2[C@@H](O)[C@@H](C)CN2C(=O)[C@H]([C@@H](C)O)NC(=O)[C@H]([C@H](O)[C@@H](O)c2ccc(O)cc2)NC(=O)[C@@H]2C[C@@H](O)CN2C(=O)[C@H]([C@@H](C)O)NC1=O [Example 63] ({Lauroyl-Aun}-[Orn(4R-OH,5R-OH)]T[Hyp][hTyr(3S-OH,4S-OH)]T[Pro(3S-OH,4S-Me)]; lactam 1-C) | > 40 mg/kg | > 40 mg/kg | 2.5 μg/disc and 1.25 μg/disc | 0 ng/mL | 400 ng/mL | 28 mm | 24 mm and 25 mm | 0.156 μg/disc | 63 mm | 55 mm | 18 mm | 15 mm | Size of Zone of Inhibition (Neurospora Crassa 846; Neurospora Crassa 846, 1 mg/ml suspension in methanol, 24-48 hours at 25-37° C., no regrowth mark): 28 mm; zone of inhibition at 1000 µg/mL (Neurospora Crassa 846; CRASSA846, 48 h, Neurospora Crassa 846, 1 mg/ml suspension in methanol, 24-48 hours at 25-37° C., no regrowth mark, read-out: Size of Zone of Inhibition): 35 mm; zone of inhibition at 1000 µg/mL ([6]; 48 h, 1 mg/ml suspension in methanol, 7 mm disc, 24-48 hours at 25-37° C., no regrowth mark, read-out: Size of Zone of Inhibition): 56 mm
CCCCCCCCCCCC(=O)Nc1ccc(C=CC(=O)N[C@H]2C[C@@H](O)[C@@H](O)NC(=O)[C@@H]3[C@@H](O)[C@@H](C)CN3C(=O)[C@H]([C@@H](C)O)NC(=O)[C@H]([C@H](O)[C@@H](O)c3ccc(O)cc3)NC(=O)[C@@H]3C[C@@H](O)CN3C(=O)[C@H]([C@@H](C)O)NC2=O)cc1 [Example 73] (Lauroyl-[X6][Orn(4R-OH,5R-OH)]T[Hyp][hTyr(3S-OH,4S-OH)]T[Pro(3S-OH,4S-Me)]; lactam 2-C) | 24 mg/kg | 20 mg/kg | 1.25 μg/disc | – | 1310 ng/mL | 29 mm | – | < 0.039 μg/disc | – | 24 mm | – | 17 mm | Size of Zone of Inhibition (*) (Candida albicans A-26 [4]; 1 mg/ml, * measurable zone of inhibition with regrowth of organism around disc): 60 mm
CCCCCCCCCCCC(=O)Nc1ccc(CC(=O)N[C@H]2C[C@@H](O)[C@@H](O)NC(=O)[C@@H]3[C@@H](O)[C@@H](C)CN3C(=O)[C@H]([C@@H](C)O)NC(=O)[C@H]([C@H](O)[C@@H](O)c3ccc(O)cc3)NC(=O)[C@@H]3C[C@@H](O)CN3C(=O)[C@H]([C@@H](C)O)NC2=O)cc1 [Example 72] (Lauroyl-[X2][Orn(4R-OH,5R-OH)]T[Hyp][hTyr(3S-OH,4S-OH)]T[Pro(3S-OH,4S-Me)]; lactam 2-C) | > 40 mg/kg | 40 mg/kg | 2.5 μg/disc | – | 340 ng/mL | 30 mm | 19 mm | 0.078 μg/disc | – | 55 mm | – | 20 mm | –
CCCCCCCCCCCC(=O)Nc1ccc(C(=O)N[C@H]2C[C@@H](O)[C@@H](O)NC(=O)[C@@H]3[C@@H](O)[C@@H](C)CN3C(=O)[C@H]([C@@H](C)O)NC(=O)[C@H]([C@H](O)[C@@H](O)c3ccc(O)cc3)NC(=O)[C@@H]3C[C@@H](O)CN3C(=O)[C@H]([C@@H](C)O)NC2=O)cc1 [Example 64, N-(n-dodecanoyl)-p-aminobenzoyl derivative of A-30912A nucleus] ({Lauroyl-4Abz}-[Orn(4R-OH,5R-OH)]T[Hyp][hTyr(3S-OH,4S-OH)]T[Pro(3S-OH,4S-Me)]; lactam 1-C) | – | – | 0.625 μg/disc and 1.25 μg/disc | – | – | – | 23 mm and 19 mm | – | 56 mm | – | 17 mm | – | ED50 (Candida albicans A-26 [1]): 15 mg/kg; minimal effective dose (Candida albicans A-26 [1]; read-out: Lowest Active Dose, subcutaneous at 0, 4 and 24 hours post infection, lowest dose with significant anti-fungal effect): 10 mg/kg; MIC (Candida albicans SBH 29; SBH29): 0.625 µg/mL (≈ 0.569 µM); MIC (Candida albicans SBH 31; SBH31): 0.625 µg/mL (≈ 0.569 µM); MIC (Candida albicans SBH 28; SBH28): 0.625 µg/mL (≈ 0.569 µM); MIC (Candida albicans SBH 16; SBH16): 0.625 µg/mL (≈ 0.569 µM); MIC (Candida albicans A26; A26): 0.312 µg/mL (≈ 0.284 µM); concentration at 4 h [8]: 830 ng/mL; Size of Zone of Inhibition (*) (Neurospora Crassa 846; Neurospora Crassa 846, 1 mg/ml, * measurable zone of inhibition with regrowth of organism around disc): 35 mm; zone of inhibition at 1000 µg/mL (Neurospora Crassa 846; CRASSA846, read-out: Size of Zone of Inhibition (*), Neurospora Crassa 846, 1 mg/ml, * measurable zone of inhibition with regrowth of organism around disc): 33 mm; SGPT levels [9]: increased SGPT levels were observed; outward signs of toxicity [9]: no outward signs of toxicity; zone of inhibition at 1000 µg/mL ([6]; read-out: Size of Zone of Inhibition (*), Trichophyton mentagrophytes, 1 mg/ml, 7 mm disc, * measurable zone of inhibition with regrowth of organism around disc): 55 mm; zone of inhibition at 1000 µg/mL ([7]; read-out: Size of Zone of Inhibition, Saccharomyces pastorianus X-52): 21 mm
CCCCCCCCCCCC(=O)NCCCCC(=O)N[C@H]1C[C@@H](O)[C@@H](O)NC(=O)[C@@H]2[C@@H](O)[C@@H](C)CN2C(=O)[C@H]([C@@H](C)O)NC(=O)[C@H]([C@H](O)[C@@H](O)c2ccc(O)cc2)NC(=O)[C@@H]2C[C@@H](O)CN2C(=O)[C@H]([C@@H](C)O)NC1=O [Example 62, N-(n-dodecanoyl)-5-amino-n-pentanoyl derivative of A-30912A nucleus] ({Lauroyl-Ava}-[Orn(4R-OH,5R-OH)]T[Hyp][hTyr(3S-OH,4S-OH)]T[Pro(3S-OH,4S-Me)]; lactam 1-C) | 22 mg/kg | 20 mg/kg | 1.25 μg/disc | 0 ng/mL | – | 27 mm | 25 mm | 0.078 μg/disc | – | 60 mm | – | 15 mm | MIC (Candida albicans SBH 29; SBH29, agar dilution, strain SBH 29, read-out: MIC): 2.5 µg/mL (≈ 2.32 µM); MIC (Candida albicans SBH 31; SBH31, agar dilution, strain SBH 31, read-out: MIC): 2.5 µg/mL (≈ 2.32 µM); MIC (Candida albicans SBH 28; SBH28, agar dilution, strain SBH 28, read-out: MIC): 2.5 µg/mL (≈ 2.32 µM); MIC (Candida albicans SBH 16; SBH16, agar dilution, strain SBH 16, read-out: MIC): 2.5 µg/mL (≈ 2.32 µM); MIC (Candida albicans A26; agar dilution, strain A26, read-out: MIC): 1.25 µg/mL (≈ 1.16 µM)
